Experimental data: the supplement of paper PMC11451515

Key:
Assay in all cases: AUC of viability dose-response curve (% viability x log10 dose units); higher = less sensitive
Settings in all cases: 48 h
SEM cells = tested on: SEM cells
How it was run: (§1)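 Leukemia cells adapted to each medium (500 or 1000 cells/well, 1536-well plates) were exposed to library compounds in DMSO for 48 h at 37°C at 11 threefold doses, 47 μM to 0.79 nM. Luminescence by CellTiter-Glo One was normalised per plate to DMSO and cell-free wells, then fitted with a four-parameter log-logistic curve on log10 dose. Curves above full viability were scaled and quality-control failures removed before area under the curve was integrated by trapezoidal rule.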

P12-Ichikawa = tested on: P12-Ichikawa
How it was run: as §1

NOMO1 = tested on: NOMO1
How it was run: as §1

[1] = RPMI 5 mM glucose + 10% dialyzed FBS

| SMILES | AUC of viability dose-response curve (SEM cells; HPLM + 10% dialyzed FBS) | AUC of viability dose-response curve (SEM cells; RPMI 5 mM glucose + 10% FBS) | AUC of viability dose-response curve (SEM cells; [1]) | AUC of viability dose-response curve (P12-Ichikawa; HPLM + 10% dialyzed FBS) | AUC of viability dose-response curve (P12-Ichikawa; RPMI 5 mM glucose + 10% FBS) | AUC of viability dose-response curve (P12-Ichikawa; [1]) | AUC of viability dose-response curve (NOMO1; HPLM + 10% dialyzed FBS) | AUC of viability dose-response curve (NOMO1; RPMI 5 mM glucose + 10% FBS) | AUC of viability dose-response curve (NOMO1; [1]) |
| --- | --- | --- | --- | --- | --- | --- | --- | --- | --- |
| CC(N[C@H]1CCCC[C@@H]1NC(=O)c1ccc(Cl)cc1)c1cccc2ccccc12 (stereo not given in full) | 449 | 449 | 455 | 428 | 420 | 425 | 398 | 416 | 421 |
| CNCC[C@H](Oc1cccc2ccccc12)c1cccs1 | 437 | 437 | 412 | 453 | 466 | 459 | 411 | 429 | 430 |
| O=C(c1ccccc1)c1ccc2n1CCC2C(=O)O (stereo not given) | 439 | 421 | 426 | 423 | 413 | 424 | 461 | 458 | 464 |
| CCOC(=O)\C1=C\[C@]2(CC)CCCN3CCC4=C([C@H]23)[N]1C5=C4C=CC=C5 | 464 | 469 | 476 | 469 | 470 | 468 | 464 | 464 | 466 |
| CN1CC(=O)N2[C@H](c3ccc4c(c3)OCO4)c3[nH]c4ccccc4c3C[C@@H]2C1=O | 466 | 435 | 461 | 456 | 440 | 419 | 427 | 447 | 449 |
